Assays:
[1] = test system: HuM2e antibody 23K12; format: binding, human
[2] = test system: anti-M2 human monoclonal antibody Z3G1; format: binding
[3] = test system: HuM2e antibody 8I10; format: binding, human
[4] = test system: mAb 8i10; format: binding, human
[5] = test system: 2N9 control antibody; format: binding
[6] = test system: 14C2 antibody; format: binding
[7] = test system: mAb 23K12; format: binding, human

Row | Substance | Signal (peptides that bind to 23K21 and 8I10) [1] | Signal (peptides that show specific binding to Z3G1) [2] | Binding activity to truncated M2 peptides, ELISA absorbance at 450 nm, 8i10 [4] | Binding activity to truncated M2 peptides, ELISA absorbance at 450 nm, 2N9 [5] | Binding activity to truncated M2 peptides, ELISA absorbance at 450 nm, 14C2 [6] | Binding activity to truncated M2 peptides, ELISA absorbance at 450 nm, 23K12 [7] | further results
1 | 705 (SLLTEVKTPIRNEWGCRCNDSSD; epitope peptide) [compound 705] | 712 | 1905 |  |  |  |  | 
2 | 706 (SLLTEVETPIRNEWGCRCADSSD; epitope peptide) [compound 706] | 712 |  |  |  |  |  | Signal (peptides that bind to Z3G1) [2]: 2329
3 | 707 (SLLTEVETPIANEWGCRCNDSSD; epitope peptide) [compound 707] | 708 | 2302 |  |  |  |  | 
4 | 708 (SLLTEVETPIRNEGGCRCNDSSD; epitope peptide) [compound 708] | 708 | 2486 |  |  |  |  | 
5 | 709 (SLLTEVLTPIRNEWGCRCNDSSD; epitope peptide) [compound 709] | 707 | 1743 |  |  |  |  | 
6 | 710 (SLLTEVETPIRREWGCRCNDSSD; epitope peptide) [compound 710] | 707 | 2278 |  |  |  |  | 
7 | 711 (CSLLTEVGSLCTEV; epitope peptide) [compound 711] | 707 | 2409 |  |  |  |  | 
8 | 712 (SLLTEVETPIRNDWGCRCNDSSD; epitope peptide) [compound 712] | 706 | 2324 |  |  |  |  | 
9 | 713 (SLLTEVETPIRNEWGQRCNDSSD; epitope peptide) [compound 713] | 705 | 2369 |  |  |  |  | 
10 | 714 (SLLTEVETPIRNEWCCRCNDSSD; epitope peptide) [compound 714] | 704 | 2388 |  |  |  |  | 
11 | 716 (SLLTEVETPIRNEFGCRCNDSSD; epitope peptide) [compound 716] | 702 | 2444 |  |  |  |  | 
12 | 718 (SLLTEVECPIRNEWGCRCNDSSD; epitope peptide) [compound 718] | 700 | 1974 |  |  |  |  | 
13 | 719 (SLLTEVETPIRNEWGCTCNDSSD; epitope peptide) [compound 719] | 700 | 2347 |  |  |  |  | 
14 | 720 (SLLTEVETPIINEWGCRCNDSSD; epitope peptide) [compound 720] | 699 | 2262 |  |  |  |  | 
15 | CSLLTECGSLLTCV (epitope peptide) [SEQ ID NO: 463] |  |  |  |  |  |  | Binding to 8I10 (in words) [3]: very best specific binder; Binding to 23K12 (in words) [1]: very best specific binder
16 | ETPIRNEWGCRCNDSSD [CM17] |  |  | 0.11 | 0.11 |  |  | 
17 | IRNEWGCRCNDSSD [CM14] |  |  | 0.14 | 0.13 | 0.23 | 0.36 | 
18 | LLTEVETPIRNEWGCR [M16] |  |  | 0.09 | 0.09 | 3.94 | 0.21 | 
19 | LTEVETPIRNEWGCR [M15] |  |  | 0.09 | 0.09 |  |  | 

Row | Substance | Signal (peptides that bind to 23K21 and 8I10) [1] | Signal (peptides that show specific binding to Z3G1) [2] | Binding activity to truncated M2 peptides, ELISA absorbance at 450 nm, 8i10 [4] | Binding activity to truncated M2 peptides, ELISA absorbance at 450 nm, 2N9 [5] | Binding activity to truncated M2 peptides, ELISA absorbance at 450 nm, 14C2 [6] | Binding activity to truncated M2 peptides, ELISA absorbance at 450 nm, 23K12 [7] | further results
20 | MSLLTEVETPIRNEWGCRCNDSSD [M2e] |  |  | 0.13 | 0.10 | 3.98 | 0.43 | 
21 | NEWGCRCNDSSD [CM12] |  |  | 0.14 | 0.14 | 0.27 | 0.39 | 
22 | PIRNEWGCRCNDSSD [CM15] |  |  | 0.12 | 0.11 |  |  | 
23 | RNEWGCRCNDSSD [CM13] |  |  | 0.14 | 0.13 |  |  | 
24 | SLLTEVE [NM7] |  |  | 0.10 | 0.08 | 0.14 | 0.20 | 
25 | SLLTEVET [NM8] |  |  | 0.10 | 0.09 | 0.15 | 0.20 | 
26 | SLLTEVETP [NM9] |  |  | 0.12 | 0.19 |  |  | 
27 | SLLTEVETPI [NM10] |  |  | 0.10 | 0.10 | 0.17 | 0.24 | 
28 | SLLTEVETPIR [NM11] |  |  | 0.13 | 0.12 | 0.21 | 0.30 | 
29 | SLLTEVETPIRN [NM12] |  |  | 0.10 | 0.09 | 0.20 | 0.24 | 
30 | SLLTEVETPIRNE [NM13] |  |  | 0.11 | 0.10 |  |  | 
31 | SLLTEVETPIRNEW [NM14] |  |  | 0.11 | 0.09 |  |  | 
32 | SLLTEVETPIRNEWG [NM15] |  |  | 0.12 | 0.11 |  |  | 
33 | SLLTEVETPIRNEWGC [NM16] |  |  | 0.29 | 0.09 | 3.90 | 0.62 | 
34 | SLLTEVETPIRNEWGCR [NM17] |  |  | 0.26 | 0.10 | 3.99 | 0.58 | 
35 | SLLTEVETPIRNEWGCRCNDSSD [M2] |  |  | 0.11 | 0.06 | 3.85 | 0.22 | 
36 | SLLTEVGSLLTEV (epitope peptide) [SEQ ID NO: 320] |  |  |  |  |  |  | Binding to 23K12 (in words) [1]: best 23k12 binder; Binding to Z3G1 (in words) [2]: recognized
37 | TPIRNEWGCRCNDSSD [CM16] |  |  | 0.13 | 0.12 | 0.23 | 0.35 | 
38 | VETPIRNEWGCR [M12] |  |  | 0.09 | 0.09 | 0.15 | 0.20 | 
